Legend:
Assay type in all cases: in vivo
[1] = system: Setaria faberi (SETFA); test: Post-emergence herbicidal activity (B2); conditions: Test B2a, 1000 g/ha, evaluated after 13 days, 5=total damage to plant, 0=no damage to plant
Method in brief: (§1)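 Plants grown for 8 days in a glasshouse (24/16 °C day/night, 14 h light, 65% humidity) were sprayed post-emergence with compound formulated in acetone/water 50:50 containing 0.5% Tween 20. Damage was scored 13 days later on a 0–5 scale (5 = total damage).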

[2] = system: Lolium perenne (LOLPE); test: Post-emergence herbicidal activity (B2); conditions: Test B2a, 1000 g/ha, evaluated after 13 days, 5=total damage to plant, 0=no damage to plant
Method in brief: as §1

[3] = system: Triticum aestivium (TRZAW); test: Post-emergence herbicidal activity (B2); conditions: Test B2a, 1000 g/ha, evaluated after 13 days, 5=total damage to plant, 0=no damage to plant
Method in brief: as §1

[4] = system: Echinochloa crus-galli (ECHCG); test: Post-emergence herbicidal activity (B2); conditions: Test B2a, 1000 g/ha, evaluated after 13 days, 5=total damage to plant, 0=no damage to plant
Method in brief: as §1

[5] = system: Avena fatua (AVEFA); test: Post-emergence herbicidal activity (B2); conditions: Test B2a, 1000 g/ha, evaluated after 13 days, 5=total damage to plant, 0=no damage to plant
Method in brief: as §1

[6] = system: Alopecurus myosuroides (ALOMY); test: Post-emergence herbicidal activity (B2); conditions: Test B2a, 1000 g/ha, evaluated after 13 days, 5=total damage to plant, 0=no damage to plant
Method in brief: as §1

[7] = system: Setaria faberi (SETFA); test: Pre-emergence herbicidal activity (B1); conditions: Test 1a, 1000 g/ha, evaluated after 13 days, 5=total damage to plant, 0=no damage to plant
Method in brief: (§2)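 After one day of cultivation, soil pots were treated pre-emergence by spray with active ingredient in acetone/water (50:50) and 0.5% Tween 20. Evaluation at 13 days used a 0–5 scale, where 5 meant total plant damage.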

[8] = system: Lolium perenne (LOLPE); test: Pre-emergence herbicidal activity (B1); conditions: Test 1a, 1000 g/ha, evaluated after 13 days, 5=total damage to plant, 0=no damage to plant
Method in brief: as §2

[9] = system: Triticum aestivium (TRZAW); test: Pre-emergence herbicidal activity (B1); conditions: Test 1a, 1000 g/ha, evaluated after 13 days, 5=total damage to plant, 0=no damage to plant
Method in brief: as §2

[10] = system: Echinochloa crus-galli (ECHCG); test: Pre-emergence herbicidal activity (B1); conditions: Test 1a, 1000 g/ha, evaluated after 13 days, 5=total damage to plant, 0=no damage to plant
Method in brief: as §2

[11] = system: Avena fatua (AVEFA); test: Pre-emergence herbicidal activity (B1); conditions: Test 1a, 1000 g/ha, evaluated after 13 days, 5=total damage to plant, 0=no damage to plant
Method in brief: as §2

[12] = system: Alopecurus myosuroides (ALOMY); test: Pre-emergence herbicidal activity (B1); conditions: Test 1a, 1000 g/ha, evaluated after 13 days, 5=total damage to plant, 0=no damage to plant
Method in brief: as §2

SMILES | SETFA damage score [1] | LOLPE damage score [2] | TRAZW damage score [3] | ECHCG damage score [4] | AVEFA damage score [5] | ALOMY damage score [6] | SETFA damage score [7] | LOLPE damage score [8] | TRAZW damage score [9] | ECHCG damage score [10] | AVEFA damage score [11] | ALOMY damage score [12]
Nc1ccc(-c2cncc(F)c2)nc1-c1ccccc1 [Compound A50] | 2 | 0 | 0 | 1 | 0 | 0 | 1 | 0 | 0 | 1 | 0 | 0
Fc1cncc(-c2ccc(NCC3CCC3)c(C(F)(F)F)n2)c1 [Compound A51, N-(cyclobutylmethyl)-6-(5-fluoro-3-pyridyl)-2-(trifluoromethyl)pyridin-3-amine] | 4 | 3 | 2 | 5 | 4 | 1 | 5 | 1 | 1 | 5 | 1 | 1
Fc1cncc(-c2ccc(NCC3CCCCC3)c(C(F)(F)F)n2)c1 [Compound A52] | 5 | 3 | 0 | 3 | 3 | 0 | 5 | 1 | 0 | 3 | 1 | 0
CC(C)CCNc1ccc(-c2cncc(F)c2)nc1C(F)(F)F [Compound A53] | 5 | 3 | 1 | 5 | 3 | 1 | 5 | 2 | 1 | 4 | 1 | 1
CCCCCNc1ccc(-c2cncc(F)c2)nc1C(F)(F)F [Compound A54] | 5 | 2 | 0 | 3 | 3 | 0 | 5 | 1 | 0 | 3 | 1 | 0
Fc1cncc(-c2ccc(NCc3cc4ccccn4n3)c(C(F)(F)F)n2)c1 [Compound A55] | 5 | 3 | 2 | 5 | 4 | 1 | 5 | 1 | 0 | 5 | 2 | 0
Fc1cncc(-c2ccc(NCc3nccs3)c(C(F)(F)F)n2)c1 [Compound A56] | 5 | 3 | 1 | 5 | 4 | 1 | 5 | 1 | 1 | 4 | 2 | 0
Fc1cncc(-c2ccc(NCc3cscn3)c(C(F)(F)F)n2)c1 [Compound A57] | 5 | 4 | 2 | 5 | 4 | 1 | 5 | 1 | 0 | 5 | 3 | 1
Cn1ccc(CNc2ccc(-c3cncc(F)c3)nc2C(F)(F)F)n1 [Compound A59] | 5 | 3 | 2 | 5 | 3 | 1 | 5 | 1 | 0 | 4 | 3 | 0
Fc1cncc(-c2ccc(NCc3cnco3)c(C(F)(F)F)n2)c1 [Compound A60] | 5 | 4 | 2 | 5 | 3 | 1 | 5 | 1 | 0 | 5 | 3 | 0
CN1CCN(c2ccc(-c3cncc(F)c3)nc2C(F)(F)F)CC1 [Compound A61] | 5 | 2 | 1 | 5 | 3 | 1 | 5 | 0 | 0 | 4 | 2 | 0
Fc1cncc(-c2ccc(N3CC(F)(F)C(F)(F)C3)c(C(F)(F)F)n2)c1 [Compound A62] | 5 | 2 | 0 | 3 | 3 | 0 | 5 | 0 | 0 | 3 | 1 | 0
Fc1cncc(-c2ccc(N3CCC3)c(C(F)(F)F)n2)c1 [Compound A63] | 5 | 2 | 0 | 3 | 3 | 0 | 5 | 0 | 0 | 2 | 0 | 0
Fc1cncc(-c2ccc(N3CCCC3C(F)(F)F)c(C(F)(F)F)n2)c1 (stereo not drawn) [Compound A64] | 4 | 0 | 0 | 2 | 1 | 0 | 1 | 0 | 0 | 1 | 0 | 0
